{"source": "paper PMC3547486", "about": "(ACS Chemical Neuroscience, 2012)", "origin": "cited, not measured here", "system": "5-HT release", "data": [{"molecule": "Clc1cccc(N2CCNCC2)c1", "note": "[mCPP, m-chlorophenylpiperazine]", "values": [{"measurement": "5-HT releasing activity (in words)", "result": "potent 5-HT releaser"}]}]}
